Holding throughout (type): functional
One assay has as its system SW-620. Briefly: Growth inhibition of human SW620 cells at 10 uM after 48 hrs by sulforhodamine B assay. The note with it: SW-620, 48 h, read-out: GI. Background: The SRB assay estimates cell density from bound dye.
For the next assay, the system named is HT-29. Briefly: Growth inhibition of human HT-29 cells at 10 uM after 48 hrs by sulforhodamine B assay. The settings on record: HT-29, 48 h, read-out: GI.
The next assay deals with Malme-3M. Briefly: Growth inhibition of human MALME-3M cells at 10 uM after 48 hrs by sulforhodamine B assay. The note with it: read-out: GI.
The test system of a further assay is SN12C. Briefly: Growth inhibition of human SN12C cells at 10 uM after 48 hrs by sulforhodamine B assay. The settings on record: read-out: GI.
The next assay deals with KM12. Briefly: Growth inhibition of human KM12 cells at 10 uM after 48 hrs by sulforhodamine B assay. The note with it: KM12, 48 h, read-out: GI.
In the next assay the test system is OVCAR-3. Briefly: Growth inhibition of human OVCAR3 cells at 10 uM after 48 hrs by sulforhodamine B assay. The settings on record: OVCAR-3, 48 h, read-out: GI.
In another assay the test system is 786-0. Briefly: Growth inhibition of human 786-0 cells at 10 uM after 48 hrs by sulforhodamine B assay. The settings on record: 786-0, 48 h, read-out: GI.
The next assay concerns HL-60(TB). Briefly: Growth inhibition of human HL-60(TB) cells at 10 uM after 48 hrs by sulforhodamine B assay. The settings on record: HL-60, 48 h, read-out: GI.
A further assay has as its system SF-539. Briefly: Growth inhibition of human SF539 cells at 10 uM after 48 hrs by sulforhodamine B assay. The note with it: SF-539, 48 h, read-out: GI.
The test system of another assay is SK-MEL-28. Briefly: Growth inhibition of human SK-MEL-28 cells at 10 uM after 48 hrs by sulforhodamine B assay. The settings on record: SK-MEL-28, 48 h, read-out: GI.
The test system of another assay is HCT-15. Briefly: Growth inhibition of human HCT15 cells at 10 uM after 48 hrs by sulforhodamine B assay. The settings on record: HCT-15, 48 h, read-out: GI.
The subject of another assay is SK-MEL-2. Briefly: Growth inhibition of human SK-MEL-2 cells at 10 uM after 48 hrs by sulforhodamine B assay. The note with it: SK-MEL-2, 48 h, read-out: GI.
Another assay deals with CCRF-CEM. Briefly: Growth inhibition of human CCRF-CEM cells at 10 uM after 48 hrs by sulforhodamine B assay. The note with it: read-out: GI.
For a further assay, the system named is UACC-257. Briefly: Growth inhibition of human UACC257 cells at 10 uM after 48 hrs by sulforhodamine B assay. The note with it: UACC-257, 48 h, read-out: GI.
Another assay relates to SF-295. Briefly: Growth inhibition of human SF295 cells at 10 uM after 48 hrs by sulforhodamine B assay. The note with it: SF-295, 48 h, read-out: GI.
The subject of a further assay is HCT-116. Briefly: Growth inhibition of human HCT116 cells at 10 uM after 48 hrs by sulforhodamine B assay. The note with it: HCT-116, 48 h, read-out: GI.

As for `CO[C@@H]1[C@@H](OC)N(S(=O)(=O)c2ccc(Cl)cc2)C(=O)N1S(=O)(=O)c1ccc(Cl)cc1` (relative stereo), the inhibition of growth at 10 µM with SW-620 was 1.4%; with HT-29 it was 16%; in the assay with Malme-3M, 6.65%; in the assay with SN12C, 14.4%; in the assay on KM12, 3.47%; in the assay with OVCAR-3, -4.48%. In addition, the inhibition of growth at 10 µM was 16.8% with 786-0; 3.82% in the assay on HL-60(TB); -15.2% in the assay with SF-539; -7.4% in the assay on SK-MEL-28; 19.8% in the assay on HCT-15; 13.1% in the assay on SK-MEL-2. Besides, the inhibition of growth at 10 µM was 15.5% in the assay on CCRF-CEM, -11.6% with UACC-257, 34% with SF-295 and 33.1% in the assay with HCT-116.

The values are drawn from ChEMBL document CHEMBL1955806, “Design, synthesis, single-crystal and preliminary antitumor activity of novel arenesulfonylimidazolidin-2-ones” (2012).
